Experimental data published in patent publication US20030100550A1, “Carboxamide diazepin derivatives, preparation method, use as medicines, pharmaceutical compositions and use thereof” (priority 2002, published 2003).

What follows are compounds tested against T1, Cathepsin K (Homo sapiens, UniProt P43235) (assay: Study of Cathepsin K inhibition (fluorescence, Z-Val-arg-AMC)). Conditions: not given.
T1 sequence (P43235 115-329): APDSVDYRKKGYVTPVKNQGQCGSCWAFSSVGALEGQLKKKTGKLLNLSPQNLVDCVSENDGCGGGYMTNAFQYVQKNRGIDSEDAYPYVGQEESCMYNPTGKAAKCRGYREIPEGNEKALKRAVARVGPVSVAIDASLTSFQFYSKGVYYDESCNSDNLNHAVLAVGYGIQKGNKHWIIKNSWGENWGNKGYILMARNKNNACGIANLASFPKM
Type: biochemical
Protocol: Study of Cathepsin K Inhibition:
The products to be tested (10 mM) are diluted to […] in DMSO and distributed into Nunc polystyrene 96 well plates at a rate of 2 μl per well. Column 12 of the plate is reserved for the controls and therefore receives […] of DMSO (without products) per well. The plates are stored at −80° C. and thawed on the day of the experiment.
The products are diluted to 50 μM by adding 38 μl of reaction buffer: sodium acetate 100 mM, EDTA 5 mM, DTT […] pH 5.5. The addition as well as all the operations by pipette are carried out with a CybiWell 96 tip pipette. After mixing the solutions, each product is transferred into 2 wells (duplicates) of a Greiner black 384 well plate at a rate of 10 μl per well. Two 96-well plates can therefore be tested in a 384-well plate.
A solution of substrate at 50 μM, Z-Val-arg-AMC (Calbiochem), is prepared in the reaction buffer. The substrate, is then distributed into all the wells of the 384-well plate (20 μl per well).
A solution of Cathepsin K at 12.5 ng/ml is prepared in the reaction buffer and distributed into all the wells of the 384-well plate (20 μl per well) except for the 16 wells serving as 100% inhibition controls (column 23 and 24, lines I to P) which receive 20 μl of enzyme-free buffer.
The plates are then incubated 2H at ambient temperature, then read on Fluoroskan (Labsystems): excitation 390 nm; emission 460 nm
The final concentrations of each of the reagents are: products 10 μM, substrate 20 μM, enzyme 5 ng/ml.
The % inhibition for each of the products is calculated by using points at 0 and 100% inhibition of each plate as references. The products presenting a significant inhibition are then retested on a range of concentrations from 50 to 0.5 μM to determine an IC50.

SMILES | IC50
C=CCOC(=O)CC[C@H](NC(=O)[C@@H]1CCCN2C(=O)CC[C@H](NS(=O)(=O)c3ccc4ccccc4c3)C(=O)N12)C(=O)CN1CCN(CC(=O)N2CCCC2)CC1 [Example 117] | 7 µM

Same assay, conditions: printed beside 20 μM; meaning not explained

SMILES | Cathepsin K, percentage in parentheses beside IC50 value (% inhibition)
C=CCOC(=O)CC[C@H](NC(=O)[C@@H]1CCCN2C(=O)CCC[C@H](NC(=O)Nc3ccc(Oc4ccccc4)cc3)C(=O)N12)C(=O)COC(C)=O [Example 133] | 25%

Same assay, conditions: substrate Z-Val-arg-AMC 20 μM, enzyme 5 ng/ml, 2H at ambient temperature; read-out: Cathepsin K IC50

IC50 | SMILES
5 µM | C=CCOC(=O)CC[C@H](NC(=O)[C@@H]1CCCN2C(=O)CC[C@H](NC(=O)C(C)C)C(=O)N12)C(=O)C=[N+]=[N-] [Example 38, (2-propenyl)(4S)6-diazo-4-[[[(1S,9S)-9-[(2-methyl-1-oxo-propyl)amino]-octahydro-6,10-dioxo-6H-pyridazino[1,2-a][1,2]diazepine-1-yl]carbonyl]amino]-5-oxo-hexanoate]
3 µM | C=CCOC(=O)CC[C@H](NC(=O)[C@@H]1CCCN2C(=O)CC[C@H](NC(=O)c3cccc(OC)c3)C(=O)N12)C(=O)C=[N+]=[N-] [Example 39, (2-propenyl)(4S)6-diazo-4-[[[(1S,9S)-9-[(3-methoxybenzoyl)amino]-octahydro-6,10-dioxo-6H-pyridazino[1,2-a][1,2]diazepine-1-yl]carbonyl]amino]-5-oxo-hexanoate]
1.8 µM | C=CCOC(=O)CC[C@H](NC(=O)[C@@H]1CCCN2C(=O)CC[C@H](NC(=O)c3ccco3)C(=O)N12)C(=O)C=[N+]=[N-] [Example 40, (2-propenyl)(4S)6-diazo-4-[[[(1S,9S)-9-[[(2-furanyl)carbonyl]amino]-octahydro-6,10-dioxo-6H-pyridazino[1,2-a][1,2]diazepine-1-yl]carbonyl]amino]-5-oxo-hexanoate]
4 µM | C=CCOC(=O)CC[C@H](NC(=O)[C@@H]1CCCN2C(=O)CC[C@H](NC(=O)NC3CCCCC3)C(=O)N12)C(=O)C=[N+]=[N-] [Example 42, (2-propenyl)(4S)6-diazo-4-[[[(1S,9S)-9-[[(cyclohexylamino)carbonyl]amino]-octahydro-6,10-dioxo-6H-pyridazino[1,2-a][1,2]diazepine-1-yl]carbonyl]amino]-5-oxo-hexanoate]
0.9 µM | C=CCOC(=O)CC[C@H](NC(=O)[C@@H]1CCCN2C(=O)CC[C@H](NS(C)(=O)=O)C(=O)N12)C(=O)C=[N+]=[N-] [Example 45, (2-propenyl)(4S)6-diazo-4-[[[(1S,9S)-9-[(methylsulphonyl)amino]-octahydro-6,10-dioxo-6H-pyridazino[1,2-a][l,2]diazepine-1-yl]carbonyl]amino]-5-oxo-hexanoate]
6 µM | C=CCOC(=O)CC[C@H](NC(=O)[C@@H]1CCCN2C(=O)CC[C@H](NS(=O)(=O)c3ccc(C(F)(F)F)cc3)C(=O)N12)C(=O)C=[N+]=[N-] [Example 46, (2-propenyl)(4S)6-diazo-4-[[[(1S,9S)-9-[[[4-(trifluoromethyl)phenyl]sulphonyl]amino]-octahydro-6,10-dioxo-6H-pyridazino[1,2-a][1,2]diazepine-1-yl]carbonyl]amino]-5-oxo-hexanoate]
5 µM | C=CCOC(=O)CC[C@H](NC(=O)[C@@H]1CCCN2C(=O)CC[C@H](NS(=O)(=O)c3ccc4ccccc4c3)C(=O)N12)C(=O)C=[N+]=[N-] [Example 47, (2-propenyl)(4S)6-diazo-4-[[[(1S,9S)-9-[[(2-naphthalenyl)sulphonyl]amino]-octahydro-6,10-dioxo-6H-pyridazino[1,2-a][1,2]diazepine-1-yl]carbonyl]amino]-5-oxo-hexanoate]
20 µM | C=CCOC(=O)CC[C@H](NC(=O)[C@@H]1CCCN2C(=O)CC[C@H](NS(=O)(=O)c3ccc(C(F)(F)F)cc3)C(=O)N12)C(=O)CN1CCN(CC(=O)N2CCCC2)CC1 [Example 107]
29 µM | C=CCOC(=O)CCC(NC(=O)C1CCCN2C(=O)CCC(NC(=O)NCCc3cccs3)C(=O)N12)C(=O)CSc1nnnn1-c1ccccc1 [Example 138, (2-propenyl)(4S)6-[(1-phenyl-1H-tetrazol-5-yl)thio]-4-[[[(1S,9S)-^9-[[[[^2-(thien-2-yl)-ethyl]amino]carbonyl]amino]-octahydro-6,10-dioxo-6H-pyridazino[1,2-a][1,2]diazepine-1-yl]carbonyl]amino]-5-oxo-hexanoate]
20 µM | [N-]=[N+]=CC(=O)[C@H](Cc1ccccc1)NC(=O)[C@@H]1CCCN2C(=O)CC[C@H](NC(=O)NCCc3cccs3)C(=O)N12 [Example 162]
20 µM | [N-]=[N+]=CC(=O)[C@H](Cc1ccccc1)NC(=O)[C@@H]1CCCN2C(=O)CC[C@H](NS(=O)(=O)c3ccc4ccccc4c3)C(=O)N12 [Example 165, 9-[(9S)-[(2-naphthalenyl)sulphonyl]amino]-N-( (2S)-4-diazo-1-phenyl-3-oxo-2-butyl)-octahydro-6,10-dioxo-6H-(1S)-pyridazino[1,2-a][1,2]diazepine-1-carboxamide]
8 µM | C[C@H](NC(=O)[C@@H]1CCCN2C(=O)CC[C@H](NC(=O)Nc3ccc(Oc4ccccc4)cc3)C(=O)N12)C(=O)C=[N+]=[N-] [Example 171, 9-[(9S)-[[(4-phenoxyphenyl)amino]carbonyl]amino]-N-((2S)-4-diazo-3-oxo-2-butyl)-octahydro-6,10-dioxo-6H-(1S)-pyridazino[1,2-a][1,2]diazepine-1-carboxamide]
20 µM | O=C(Nc1ccc(Oc2ccccc2)cc1)N[C@H]1CCC(=O)N2CCC[C@@H](C(=O)N[C@@H](Cc3ccccc3)C(=O)CN3CCC(Cc4ccccc4)CC3)N2C1=O [Example 218, 9-[(9S)-[[(4-phenoxyphenyl)amino]carbonyl]amino]-N-[(2S)-4-[(4-phenylmethyl)-1-piperidinyl]-1-phenyl-3-oxo-2-butyl]-octahydro-6,10-dioxo-6H-(1S)-pyridazino[1,2-a][1,2]diazepine-1-carboxamide]
10 µM | CC(C)C[C@H](NC(=O)[C@@H]1CCCN2C(=O)CC[C@H](NC(=O)C(C)C)C(=O)N12)C(=O)C=[N+]=[N-] [Example 339, 9-[(9S)-(2-methyl-1-oxo-propyl)amino]-N-((3S)-1-diazo-5-methyl-2-oxo-3-hexyl)-octahydro-6,10-dioxo-6H-(1S)-pyridazino[1,2-a][1,2]diazepine-1-carboxamide]
7 µM | COc1cccc(C(=O)N[C@H]2CCC(=O)N3CCC[C@@H](C(=O)N[C@@H](CC(C)C)C(=O)C=[N+]=[N-])N3C2=O)c1 [Example 340, 9-[(9S)-(3-methoxybenzoyl)amino]-N-((3S)-1-diazo-5-methyl-2-oxo-3-hexyl)-octahydro-6,10-dioxo-6H-(1S)-pyridazino[1,2-a][1,2]diazepine-1-carboxamide]
8 µM | CC(C)C[C@H](NC(=O)[C@@H]1CCCN2C(=O)CC[C@H](NC(=O)c3ccco3)C(=O)N12)C(=O)C=[N+]=[N-] [Example 341, 9-[(9S)-[(2-furanyl)carbonyl]amino]-N-((3S)-1-diazo-5-methyl-2-oxo-3-hexyl)-octahydro-6,10-dioxo-6H-(1S)-pyridazino[1,2-a][1,2]diazepine-1-carboxamide]
14 µM | CC(C)C[C@H](NC(=O)[C@@H]1CCCN2C(=O)CC[C@H](NC(=O)NC3CCCCC3)C(=O)N12)C(=O)C=[N+]=[N-] [Example 343, 9-[(9S)-[(cyclohexylamino)carbonyl]amino]-N-((3S)-1-diazo-5-methyl-2-oxo-3-hexyl)-octahydro-6,10-dioxo-6H-(1S)-pyridazino[1,2-a][1,2]diazepine-1-carboxamide]
5 µM | CC(C)C[C@H](NC(=O)[C@@H]1CCCN2C(=O)CC[C@H](NC(=O)Nc3ccc(Oc4ccccc4)cc3)C(=O)N12)C(=O)C=[N+]=[N-] [Example 344, 9-[(9S)-[[(4-phenoxyphenyl)amino]carbonyl]amino]-N-((3S)-1-diazo-5-methyl-2-oxo-3-hexyl)-octahydro-6,10-dioxo-6H-(1S)-pyridazino[1,2-a][1,2]diazepine-1-carboxamide]
5 µM | CC(C)C[C@H](NC(=O)[C@@H]1CCCN2C(=O)CC[C@H](NC(=O)NCCc3cccs3)C(=O)N12)C(=O)C=[N+]=[N-] [Example 345, 9-[(9S)-[[[2-(thien-2-yl)-ethyl]amino]carbonyl]amino]-N-((3S)-1-diazo-5-methyl-2-oxo-3-hexyl)-octahydro-6,10-dioxo-6H-(1S)-pyridazino[1,2-a][1,2]diazepine-1-carboxamide]
6 µM | CC(C)C[C@H](NC(=O)[C@@H]1CCCN2C(=O)CC[C@H](NS(C)(=O)=O)C(=O)N12)C(=O)C=[N+]=[N-] [Example 346, 9-[(9S)-(methylsulphonyl)amino]-N-((3S)-1-diazo-5-methyl-2-oxo-3-hexyl)-octahydro-6,10-dioxo-6H-(1S)-pyridazino[1,2-a][1,2]diazepine-1-carboxamide]

SMILES | IC50
C=CCOC(=O)CC[C@H](NC(=O)[C@@H]1CCCN2C(=O)CCC[C@H](NC(=O)Nc3ccc(Oc4ccccc4)cc3)C(=O)N12)C(=O)COC(C)=O [Example 133] | 20 µM
